Reference: patent US20250268859A1, “OXAFURAMINE, (1R)-N-ETHYL-1-[(2R)-OXOLAN-2-YL]-2-[…], HYDROCHLORIDE AND DERIVATIVES THEREOF FOR TREATING ALZHEIMER'S DISEASE (AD), […] […], […] WITH LEWY BODIES (DLB), MIXED […], FRON[…] DEGENERATION (FTLD), AND PARKINSON'S DISEASE (PD)” (NLS Pharmaceutics AG, priority 2021, published 2025)

Tests used:
[1] = Body weight of the mice in the NOR study; type: in vivo, C57BL/6J, male; details: mean, N = 16
Text: Statistical analyses: • Read-outs: DI, N-F, ST, CT, N, F • Unpaired Student's t test: Donep 2 group vs. Control group. • One-way ANOVA, Dunnett test: • NLS-12 groups vs. Control group. • NLS-12 groups vs. Donep 2 group. • Read-outs: DI and N-F, for all groups, paired Student's t test, difference vs. 0. • Body weight: one-way ANOVA.

DAT (h) = molecular target: T1, DAT (h) (Homo sapiens, UniProt Q01959); experiment: Radioligand binding panel, DAT (h) (antagonist radioligand); details: % inhibition of control specific binding
T1 construct: Eurofins (contract panel)
T1 sequence (Q01959 whole entry): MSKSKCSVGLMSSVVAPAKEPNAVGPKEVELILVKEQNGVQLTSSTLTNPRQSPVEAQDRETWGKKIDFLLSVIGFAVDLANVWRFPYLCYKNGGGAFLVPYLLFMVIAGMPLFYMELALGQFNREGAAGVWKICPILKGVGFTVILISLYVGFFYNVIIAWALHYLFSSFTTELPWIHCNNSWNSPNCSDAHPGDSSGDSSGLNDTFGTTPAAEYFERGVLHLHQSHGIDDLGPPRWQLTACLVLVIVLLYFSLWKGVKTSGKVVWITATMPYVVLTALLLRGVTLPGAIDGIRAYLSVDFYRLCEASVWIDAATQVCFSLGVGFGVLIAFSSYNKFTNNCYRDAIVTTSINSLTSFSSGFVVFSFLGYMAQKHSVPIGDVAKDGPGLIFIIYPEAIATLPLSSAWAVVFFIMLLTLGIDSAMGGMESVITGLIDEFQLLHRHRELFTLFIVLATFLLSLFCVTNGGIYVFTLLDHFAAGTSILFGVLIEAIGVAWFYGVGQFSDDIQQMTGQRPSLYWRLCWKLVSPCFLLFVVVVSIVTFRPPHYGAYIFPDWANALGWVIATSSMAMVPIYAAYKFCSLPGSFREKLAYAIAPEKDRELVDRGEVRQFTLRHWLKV
Description: Oxafuramine is tested at 10^−5 M, calculated as a % inhibition of control specific binding of a radioactively labeled ligand specific for each target.
This binding profile panel was broadly defined with roughly an equal number of selective, central and peripheral therapeutically relevant targets, including native animal tissues, radioligands and specific enzymes involved in cell cycle regulation in accordance with Eurofins Standard Operating Procedure (www.eurofins.fr).
For radioligand binding experiments, the half maximal inhibitory concentration (IC50) and the half maximal effective concentration (EC50) values were determined (via computer software) by nonlinear regression analysis of the competition curves using Hill equation curve fitting. The inhibition constants (Ki) were calculated using the Cheng-Prusoff equation (Ki=IC50/(1+(L/KD)), where L is the concentration of radioligand in the assay, and KD is the affinity of the radioligand for the receptor.
The results are expressed as a % control specific binding ([measured specific binding/control specific binding]×100) and as a % inhibition of control specific binding (100−[(measured specific binding/control specific binding)×100]) obtained in the presence of the test compounds. […]

For `CCN[C@H](Cc1ccccc1)[C@H]1CCCO1` [Oxafuramine, (1R)—N-ethyl-1-[(2R)-oxolan-2-yl]-2-phenylethanamine], the “BW Body weight” value ([1]; NLS-12 1 mg/kg i.p. group) was 22.8 g, the “BW Body weight” value ([1]; NLS-12 4 mg/kg i.p. group) was 23.5 g and the “BW Body weight” value ([1]; NLS-12 8 mg/kg i.p. group) was 22.9 g. The inhibition at 10 µM (DAT (h); 10^−5 M) was 94.1% and the “% Inhibition at 10^−5M, DAT (h) (antagonist radioligand)” value (DAT (h)) was “appreciable potencies”.
